Measured values published in patent US10479780B2, “Aminopyrazole derivatives” (Chugai Seiyaku Kabushiki Kaisha, priority 2015, dated 2019).
Where two headings read alike, the source gives them in different places.

Columns and labels:
Type in all cases: biochemical
[1] = biological target: T1, human Src enzyme (Homo sapiens, UniProt P12931); experiment: Src enzyme inhibitory activity (time-resolved fluorometry, biotinylated peptide phosphorylation); conditions: read-out: SRC_IC50
T1 construct: purchased Carna Biosciences, Inc. 08-173
In short: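 Compounds were tested for blocking tyrosine phosphorylation of a biotinylated peptide substrate by recombinant human Src. Phosphorylated product was quantified by time-resolved fluorometry using europium cryptate and XL665 conjugates, and IC50 was calculated against the compound-free control.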

[2] = biological target: T2, human Yes1 enzyme (Homo sapiens, UniProt P07947); experiment: Yes1 enzyme inhibitory activity (time-resolved fluorometry, biotinylated peptide phosphorylation); conditions: read-out: YES_IC50
T2 construct: made in house
In short: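 Inhibition was expressed against a compound-free control to give IC50, using TR-FRET read-out (Eu-cryptate anti-pTyr antibody, streptavidin-XL665).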

[3] = biological target: T3, human Lck enzyme (Homo sapiens, UniProt P06239); experiment: Lck enzyme inhibitory activity (time-resolved fluorometry, biotinylated peptide phosphorylation); conditions: read-out: LCK_IC50
T3 construct: purchased Carna Biosciences, Inc. 08-170
In short: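 Readout pairs a europium cryptate-labelled anti-phosphotyrosine antibody with XL665-streptavidin, measured by time-resolved fluorescence. IC50 derived from percent inhibition against untreated controls.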

[4] = biotinylated peptide phosphorylation

T3 sequence (P06239 whole entry): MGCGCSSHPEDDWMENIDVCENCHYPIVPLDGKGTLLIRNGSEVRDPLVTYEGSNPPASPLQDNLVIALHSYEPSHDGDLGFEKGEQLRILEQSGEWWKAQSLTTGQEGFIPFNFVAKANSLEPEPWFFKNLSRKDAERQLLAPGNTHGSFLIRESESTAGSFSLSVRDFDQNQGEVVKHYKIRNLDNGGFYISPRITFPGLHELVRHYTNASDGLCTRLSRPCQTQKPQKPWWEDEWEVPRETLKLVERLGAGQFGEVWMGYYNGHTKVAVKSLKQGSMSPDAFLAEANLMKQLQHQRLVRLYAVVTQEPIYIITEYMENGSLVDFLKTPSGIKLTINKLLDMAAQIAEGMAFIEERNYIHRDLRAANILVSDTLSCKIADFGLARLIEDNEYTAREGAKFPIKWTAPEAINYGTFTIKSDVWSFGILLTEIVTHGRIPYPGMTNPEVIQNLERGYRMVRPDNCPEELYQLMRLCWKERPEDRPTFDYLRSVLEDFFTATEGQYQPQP
T1 sequence (P12931 whole entry): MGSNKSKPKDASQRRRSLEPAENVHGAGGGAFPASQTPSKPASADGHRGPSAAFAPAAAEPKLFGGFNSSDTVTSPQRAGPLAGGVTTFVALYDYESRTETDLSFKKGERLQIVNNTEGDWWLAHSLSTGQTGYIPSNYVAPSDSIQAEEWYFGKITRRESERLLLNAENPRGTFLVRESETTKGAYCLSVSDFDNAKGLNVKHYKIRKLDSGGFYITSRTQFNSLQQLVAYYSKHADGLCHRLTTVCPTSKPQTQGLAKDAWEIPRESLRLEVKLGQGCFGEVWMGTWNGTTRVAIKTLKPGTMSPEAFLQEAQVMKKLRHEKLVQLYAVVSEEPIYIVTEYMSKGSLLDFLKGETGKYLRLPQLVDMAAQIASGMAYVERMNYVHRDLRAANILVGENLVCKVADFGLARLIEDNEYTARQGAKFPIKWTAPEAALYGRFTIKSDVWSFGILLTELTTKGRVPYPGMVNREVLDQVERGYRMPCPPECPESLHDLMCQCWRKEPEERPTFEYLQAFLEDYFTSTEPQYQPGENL
T2 sequence (P07947 whole entry): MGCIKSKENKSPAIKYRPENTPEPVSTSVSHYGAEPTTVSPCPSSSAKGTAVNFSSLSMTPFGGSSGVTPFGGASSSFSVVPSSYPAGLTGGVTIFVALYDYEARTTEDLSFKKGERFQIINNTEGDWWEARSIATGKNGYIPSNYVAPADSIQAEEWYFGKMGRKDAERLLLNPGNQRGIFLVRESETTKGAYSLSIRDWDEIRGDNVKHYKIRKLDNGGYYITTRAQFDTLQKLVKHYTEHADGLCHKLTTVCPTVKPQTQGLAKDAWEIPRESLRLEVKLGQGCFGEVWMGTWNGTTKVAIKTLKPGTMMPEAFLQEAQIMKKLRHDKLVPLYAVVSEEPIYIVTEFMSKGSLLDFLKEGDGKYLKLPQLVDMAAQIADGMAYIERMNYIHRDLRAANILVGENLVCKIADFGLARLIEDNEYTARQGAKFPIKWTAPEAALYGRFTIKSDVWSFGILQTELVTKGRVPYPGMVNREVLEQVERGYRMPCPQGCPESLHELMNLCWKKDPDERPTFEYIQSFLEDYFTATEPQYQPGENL

| SMILES | IC50 [1] [nM] | IC50 [2] [nM] | IC50 [3] [nM] | IC50 [1, 4] [nM] | IC50 [2, 4] [nM] | IC50 [3, 4] [nM] |
| --- | --- | --- | --- | --- | --- | --- |
| Cc1cc(Oc2ccccc2F)ccc1-n1ncc(C(=O)c2cc3cc(F)c(-n4c(C)cc(=O)[nH]c4=O)cc3[nH]2)c1N [Example 5-1-104, 1-[2-[5-amino-1-[4-(2-fluorophenoxy)-2-methylphenyl]pyrazole-4-carbonyl]-5-fluoro-1H-indol-6-yl]-6-methylpyrimidine-2,4-dione] | 9.7 | 0.63 | 1.1 |  |  |  |
| Cc1cc2cc(C(=O)c3cnn(-c4cnc(Oc5c(F)cccc5F)cc4C)c3N)[nH]c2cc1NS(=O)(=O)c1cccc(Cl)n1 [Example 5-1-526, N-[2-[5-amino-1-[6-(2,6-difluorophenoxy)-4-methylpyridin-3-yl]pyrazole-4-carbonyl]-5-methyl-1H-indol-6-yl]-6-chloropyridine-2-sulfonamide] |  |  |  | 620 | 8 | 250 |
| Cc1cc(Oc2c(F)cccc2F)ncc1-n1ncc(C(=O)c2cc3cc(OCC(F)F)c(N4C(=O)NC5(CCN(C6COC6)CC5)C4=O)cc3[nH]2)c1N [Example 5-1-350, 3-[2-[5-amino-1-[6-(2,6-difluorophenoxy)-4-methylpyridin-3-yl]pyrazole-4-carbonyl]-5-(2,2-difluoroethoxy)-1H-indol-6-yl]-8-(oxetan-3-yl)-1,3,8-triazaspiro[4.5]decane-2,4-dione] | 13 | 0.88 | 3.3 |  |  |  |
| Cc1cc(Oc2cccc(F)c2F)cc(F)c1-n1ncc(C(=O)c2cc3cc(F)c(NS(=O)(=O)N4CCOCC4)cc3[nH]2)c1N [Example 4-5-011, N-[2-[5-amino-1-[4-(2,3-difluorophenoxy)-2-fluoro-6-methylphenyl]pyrazole-4-carbonyl]-5-fluoro-1H-indol-6-yl]morpholine-4-sulfonamide] |  |  |  | 110 | 1.6 | 65 |
| Cc1cc(Oc2ccccc2F)ccc1-n1ncc(C(=O)c2cc3cc(F)c(NS(=O)(=O)CC(=O)NC(C)C)cc3[nH]2)c1N [Example 4-10-002, 2-[[2-[5-amino-1-[4-(2-fluorophenoxy)-2-methylphenyl]pyrazole-4-carbonyl]-5-fluoro-1H-indol-6-yl]sulfamoyl]-N-propan-2-ylacetamide] |  |  |  | 27 | 0.77 | 11 |
| Cc1cc(Oc2c(F)cccc2F)ncc1-n1ncc(C(=O)c2cc3cc(OC4CCN(C5CS(=O)(=O)C5)CC4)c(Br)cc3[nH]2)c1N [Example 5-1-228, [5-amino-1-[6-(2,6-difluorophenoxy)-4-methylpyridin-3-yl]pyrazol-4-yl]-[6-bromo-5-[1-(1,1-dioxothietan-3-yl)piperidin-4-yl]oxy-1H-indol-2-yl]methanone] | 13 | 1.3 | 3.1 |  |  |  |
| Cc1cc(Oc2ccccc2F)ccc1-n1ncc(C(=O)c2cc3cc(OC4CCN(C(C)C)CC4)c(Br)cc3[nH]2)c1N [Example 5-1-146, [5-amino-1-[4-(2-fluorophenoxy)-2-methylphenyl]pyrazol-4-yl]-[6-bromo-5-(1-propan-2-ylpiperidin-4-yl)oxy-1H-indol-2-yl] methanone] | 2.2 | 0.27 | 5.3 |  |  |  |
| Cc1cc(Oc2c(F)cccc2F)ncc1-n1ncc(C(=O)c2cc3cc(OC4CCN(C(C)C)CC4)c(Cl)cc3[nH]2)c1N [Example 5-1-205, [5-amino-1-[6-(2,6-difluorophenoxy)-4-methylpyridin-3-yl]pyrazol-4-yl]-[6-chloro-5-(1-propan-2-ylpiperidin-4-yl)oxy-1H-indol-2-yl] methanone] | 15 | 0.43 | 7.2 |  |  |  |
| Cc1cc2cc(C(=O)c3cnn(-c4ccc(Oc5ccccc5F)cc4C)c3N)[nH]c2cc1N1CCCS1(=O)=O [Example 4-2-112, [5-amino-1-[4-(2-fluorophenoxy)-2-methylphenyl]pyrazol-4-yl]-[6-(1,1-dioxo-1,2-thiazolidin-2-yl)-5-methyl-1H-indol-2-yl]methanone] |  |  |  | 23 | 0.93 | 8.3 |
| Cc1cc(Oc2c(F)cccc2F)ncc1-n1ncc(C(=O)c2cc3cc(OC(F)F)c(N4C(=O)C(C)(C)NC4=S)cc3[nH]2)c1N [Example 4-23-038, 3-[2-[5-amino-1-[6-(2,6-difluorophenoxy)-4-methylpyridin-3-yl]pyrazole-4-carbonyl]-5-(difluoromethoxy)-1H-indol-6-yl]-5,5-dimethyl-2-sulfanylideneimidazolidin-4-one] |  |  |  | 71 | 1.2 | 10 |
| Cc1cc(Oc2cccc(F)c2F)ncc1-n1ncc(C(=O)c2cc3cc(Cl)c(NS(C)(=O)=O)cc3[nH]2)c1N [Example 4-2-087, N-[2-[5-amino-1-[6-(2,3-difluorophenoxy)-4-methylpyridin-3-yl]pyrazole-4-carbonyl]-5-chloro-1H-indol-6-yl]methanesulfonamide] |  |  |  | 220 | 2.7 | 55 |
| Cc1cc(Oc2ccccc2F)ccc1-n1ncc(C(=O)c2cc3cc(C(C)C)c(Br)cc3[nH]2)c1N [Example 5-1-260, [5-amino-1-[4-(2-fluorophenoxy)-2-methylphenyl]pyrazol-4-yl]-(6-bromo-5-propan-2-yl-1H-indol-2-yl)methanone] | 61 | 8.5 | 44 |  |  |  |
| Cc1cc(Oc2c(F)cccc2F)ncc1-n1ncc(C(=O)c2cc3cc(N4CCOCC4)c(Br)cc3[nH]2)c1N [Example 5-1-155, [5-amino-1-[6-(2,6-difluorophenoxy)-4-methylpyridin-3-yl]pyrazol-4-yl]-(6-bromo-5-morpholin-4-yl-1H-indol-2-yl)methanone] | 22 | 1.6 | 12 |  |  |  |
| Cc1cc2cc(C(=O)c3cnn(-c4ccc(Oc5cccc(F)c5F)cc4C)c3N)[nH]c2cc1NS(=O)(=O)N1CCOCC1 [Example 4-2-106, N-[2-[5-amino-1-[4-(2,3-difluorophenoxy)-2-methylphenyl]pyrazole-4-carbonyl]-5-methyl-1H-indol-6-yl]morpholine-4-sulfonamide] |  |  |  | 180 | 1.4 | 51 |
| Cc1cc(Oc2ccccc2F)cc(F)c1-n1ncc(C(=O)c2cc3cc(Cl)c(NS(C)(=O)=O)cc3[nH]2)c1N [Example 4-2-079, N-[2-[5-amino-1-[2-fluoro-4-(2-fluorophenoxy)-6-methylphenyl]pyrazole-4-carbonyl]-5-chloro-1H-indol-6-yl]methanesulfonamide] |  |  |  | 66 | 2.6 | 24 |
| Cc1cc2cc(C(=O)c3cnn(-c4ccc(Oc5ccccc5F)cc4C)c3N)[nH]c2cc1N1C(=O)CNC1=O [Example 5-1-434, 3-[2-[5-amino-1-[4-(2-fluorophenoxy)-2-methylphenyl]pyrazole-4-carbonyl]-5-methyl-1H-indol-6-yl]imidazolidine-2,4-dione] |  |  |  | 15 | 0.44 | 4.1 |
| COc1cc2cc(C(=O)c3cnn(-c4cnc(Oc5ccccc5F)cc4C)c3N)[nH]c2cc1NS(=O)(=O)CC(=O)NC(C)C [Example 4-10-015, 2-[[2-[5-amino-1-[6-(2-fluorophenoxy)-4-methylpyridin-3-yl]pyrazole-4-carbonyl]-5-methoxy-1H-indol-6-yl]sulfamoyl]-N-propan-2-ylacetamide] |  |  |  | 58 | 1.1 | 7.2 |
| Cc1cc(Oc2c(F)cccc2F)ncc1-n1ncc(C(=O)c2cc3cc(F)c(NC4CN(S(C)(=O)=O)C4)cc3[nH]2)c1N [Example 5-1-102, [5-amino-1-[6-(2,6-difluorophenoxy)-4-methylpyridin-3-yl]pyrazol-4-yl]-[5-fluoro-6-[(1-methylsulfonylazetidin-3-yl)amino]-1H-indol-2-yl]methanone] | 5 | 0.77 | 1.3 |  |  |  |
| COc1cccc(S(=O)(=O)Nc2cc3[nH]c(C(=O)c4cnn(-c5cnc(Oc6c(F)cccc6F)cc5C)c4N)cc3cc2OCC(F)F)c1 [Example 5-1-327, N-[2-[5-amino-1-[6-(2,6-difluorophenoxy)-4-methylpyridin-3-yl]pyrazole-4-carbonyl]-5-(2,2-difluoroethoxy)-1H-indol-6-yl]-3-methoxybenzenesulfonamide] | 920 | 7.3 | 270 |  |  |  |
| Cc1cc(Oc2c(F)cccc2F)ncc1-n1ncc(C(=O)c2cc3cc(F)c(N4C(=O)NC(C)(C)C4=O)cc3[nH]2)c1N [Example 5-1-114, 3-[2-[5-amino-1-[6-(2,6-difluorophenoxy)-4-methylpyridin-3-yl]pyrazole-4-carbonyl]-5-fluoro-1H-indol-6-yl]-5,5-dimethylimidazolidine-2,4-dione] | 41 | 1.7 | 1.1 |  |  |  |
| Cc1cc(Oc2ccccc2Cl)cc(F)c1-n1ncc(C(=O)c2cc3cc(F)c(NS(=O)(=O)C4CC4)cc3[nH]2)c1N [Example 4-7-010, N-[2-[5-amino-1-[4-(2-chlorophenoxy)-2-fluoro-6-methylphenyl]pyrazole-4-carbonyl]-5-fluoro-1H-indol-6-yl]cyclopropanesulfonamide] |  |  |  | 280 | 9 | 100 |
| Cc1cccc(S(=O)(=O)Nc2cc3[nH]c(C(=O)c4cnn(-c5ccc(Oc6ccccc6F)cc5C)c4N)cc3cc2F)n1 [Example 5-1-532, N-[2-[5-amino-1-[4-(2-fluorophenoxy)-2-methylphenyl]pyrazole-4-carbonyl]-5-fluoro-1H-indol-6-yl]-6-methylpyridine-2-sulfonamide] |  |  |  | 290 | 1.6 | 38 |
